Laboratory results as given in article PMC10850190, “Bifidobacterial GH146 β-L-arabinofuranosidase for the removal of β1,3-L-arabinofuranosides on plant glycans” (Applied Microbiology and Biotechnology, 2024).

Target: T1, Bll1HypBA1 (Bifidobacterium longum, UniProt E8MGH8)
T1 construct: gene hypBA1; GH127 enzyme prepared as in earlier reports; homodimer
T1 sequence (E8MGH8 1-658): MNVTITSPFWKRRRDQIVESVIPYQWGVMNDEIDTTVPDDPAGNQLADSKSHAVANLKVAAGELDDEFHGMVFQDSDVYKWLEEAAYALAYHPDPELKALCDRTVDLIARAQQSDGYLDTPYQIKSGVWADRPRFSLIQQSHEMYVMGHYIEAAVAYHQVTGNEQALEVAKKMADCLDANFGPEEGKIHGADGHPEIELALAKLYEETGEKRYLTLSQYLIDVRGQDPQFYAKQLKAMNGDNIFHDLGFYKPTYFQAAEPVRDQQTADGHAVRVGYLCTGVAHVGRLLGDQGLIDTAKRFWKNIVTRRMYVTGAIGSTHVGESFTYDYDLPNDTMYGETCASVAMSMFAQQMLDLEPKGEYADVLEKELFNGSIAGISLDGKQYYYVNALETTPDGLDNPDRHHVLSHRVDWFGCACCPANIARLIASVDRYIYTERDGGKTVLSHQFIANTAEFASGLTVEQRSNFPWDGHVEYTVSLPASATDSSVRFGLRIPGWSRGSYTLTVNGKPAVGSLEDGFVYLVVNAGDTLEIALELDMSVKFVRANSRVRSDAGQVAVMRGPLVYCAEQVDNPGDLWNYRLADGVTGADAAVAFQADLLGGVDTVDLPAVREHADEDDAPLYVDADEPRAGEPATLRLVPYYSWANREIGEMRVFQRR
Test: TLC, released L-arabinose
Format: biochemical
Conditions: 50 mM sodium acetate pH 5.5; 37 °C; 16 h

Structure (SMILES) | TLC, released L-arabinose
CO[C@@H]1O[C@@H](CO)[C@H](O)[C@H]1O[C@H]1O[C@@H](CO)[C@H](O)[C@H]1O [β2, Araf-β1,2-Araf-α-OMe] | Conversely, Bll1HypBA1 completely hydrolyzed these substrates
CO[C@@H]1O[C@@H](CO[C@H]2O[C@@H](CO)[C@H](O)[C@H]2O)[C@H](O)[C@H]1O [β5, Araf-β1,5-Araf-α-OMe] | Conversely, Bll1HypBA1 completely hydrolyzed these substrates
